Data published in US9790178B2, “Pyrrolidinyl urea, thiourea, guanidine and cyanoguanidine compounds as TrkA kinase inhibitors” (Array BioPharma Inc., priority 2012, dated 2017).

Target: T1, His-tagged recombinant human TrkA (Homo sapiens, UniProt P04629)
T1 construct: 6HIS tagged cytoplasmic domain from Invitrogen, Catalog No. PV3144; purchased Invitrogen PV3144
Assay: TrkA LanthaScreen Eu Kinase Binding Assay
Settings: averaged IC50 values; read-out: TrkA enzyme IC50
Method: TrkA binding activity was determined in a TrkA LanthaScreen™ Eu Kinase Binding Assay. 5 nM His-tagged recombinant human TrkA (6HIS tagged cytoplasmic domain from Invitrogen, Catalog No. PV3144) was incubated with 4 nM Alexa-Fluor® Tracer 236 (Invitrogen Cat. No. PV5592), 2 nM biotinylated anti-His (Invitrogen Cat. No. PV6090), and 2 nM europium-labeled Streptavidin (Invitrogen Cat. No. PV5899), in buffer (25 mM MOPS, pH 7.5, 5 mM MgCl2, 0.005% Triton X-100). Three fold serial dilutions of compounds of the invention in DMSO were added to a final percentage of 2% DMSO. After 60-minute incubation at 22° C., the reaction was measured using the EnVision mutlimode plate reader (PerkinElmer) via TR-FRET dual wavelength detection at […]. The percent of control was calculated using a ratiometric emission factor. The IC50 values were determined by fitting a four parameter model to the percent of control data.
Table A provides averaged IC50 values for compounds of the invention when tested in the assay of Example A, where A represents an averaged IC50 value <100 nM; and B represents an averaged IC50 value from 100 to 1,000 nM.

T1 sequence (P04629 440-796 limits assumed): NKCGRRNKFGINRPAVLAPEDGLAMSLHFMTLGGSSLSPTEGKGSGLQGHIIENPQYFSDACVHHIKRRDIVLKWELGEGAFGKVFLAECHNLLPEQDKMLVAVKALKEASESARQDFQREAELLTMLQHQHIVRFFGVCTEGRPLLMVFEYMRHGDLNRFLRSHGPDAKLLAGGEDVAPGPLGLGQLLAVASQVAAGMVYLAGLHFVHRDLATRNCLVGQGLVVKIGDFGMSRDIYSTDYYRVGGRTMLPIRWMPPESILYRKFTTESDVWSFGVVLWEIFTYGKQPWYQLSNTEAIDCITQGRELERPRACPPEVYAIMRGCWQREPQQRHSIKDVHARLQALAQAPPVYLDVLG

| Structure (SMILES) | IC50 [nM] |
| --- | --- |
| COCCN1C[C@@H](NC(=O)Nc2cccc3c(Br)n[nH]c23)[C@H](c2ccccc2)C1 (relative stereo) [Example 3, 1-(3-bromo-1H-indazol-7-yl)-3-(trans-1-(2-methoxyethyl)-4-phenylpyrrolidin-3-yl)urea] | < 100 |
| COCCN1C[C@@H](NC(=O)Nc2c(-c3ccccc3)nc3c(C(F)(F)F)cccn23)[C@H](c2ccccc2)C1 (relative stereo) [Example 16, 1-((trans)-1-(2-methoxyethyl)-4-phenylpyrrolidin-3-yl)-3-(2-phenyl-8-(trifluoromethyl)imidazo [1,2-a]pyridin-3-yl)urea] | < 100 |
| COCCN1C[C@@H](NC(=O)Nc2c(-c3ccccc3)nc3c(=O)n(C)ccn23)[C@H](c2ccc(F)c(F)c2)C1 [Example 24, 1-((3S,4R)-4-(3,4-difluorophenyl)-1-(2-methoxyethyl)pyrrolidin-3-yl)-3-(7-methyl-8-oxo-2-phenyl-7,8-dihydroimidazo[1,2-a]pyrazin-3-yl)urea] | < 100 |
| COCCN1C[C@@H](NC(=O)NC2=C(c3ccccc3)C(=O)c3ccccc32)[C@H](c2ccc(F)c(F)c2)C1 [Example 28, 1-((3S,4R)-4-(3,4-difluorophenyl)-1-(2-methoxyethyl)pyrrolidin-3-yl)-3-(1-oxo-2-phenyl-1H-inden-3-yl)urea] | 100 to 1000 |
| COCCN1C[C@@H](NC(=O)Nc2c(-c3ccccc3)nc3scnn23)[C@H](c2ccccc2)C1 (relative stereo) [Example 8, 1-((trans)-1-(2-methoxyethyl)-4-phenylpyrrolidin-3-yl)-3-(6-phenylimidazo[2,1-b][1,3,4]thiadiazol-5-yl)urea] | < 100 |
| COCCN1C[C@@H](NC(=O)Nc2c(-c3ccccc3)nc3sc(C)cn23)[C@H](c2ccccc2)C1 (relative stereo) [Example 5, 1-((trans)-1-(2-methoxyethyl)-4-phenylpyrrolidin-3-yl)-3-(2-methyl-6-phenylimidazo[2,1-b]thiazol-5-yl)urea] | 100 to 1000 |
| COCCN1C[C@@H](NC(=O)Nc2c(-c3ccccc3)nc3c(C)nccn23)[C@H](c2cc(F)cc(F)c2)C1 [Example 23, 1-((3S,4R)-4-(3,5-difluorophenyl)-1-(2-methoxyethyl)pyrrolidin-3-yl)-3-(8-methyl-2-phenylimidazo[1,2-a]pyrazin-3-yl)urea] | < 100 |
| COCCN1C[C@@H](NC(=O)Nc2c(-c3ccccc3)nc3cnccn23)[C@H](c2ccccc2)C1 (relative stereo) [Example 10, 1-((trans)-1-(2-methoxyethyl)-4-phenylpyrrolidin-3-yl)-3-(2-phenylimidazo[1,2-a]pyrazin-3-yl)urea] | < 100 |
| COCCN1C[C@@H](NC(=O)Nc2c(-c3ccccc3)nc3ccc(C)cn23)[C@H](c2ccccc2)C1 (relative stereo) [Example 13, 1-((trans)-1-(2-methoxyethyl)-4-phenylpyrrolidin-3-yl)-3-(6-methyl-2-phenylimidazo[1,2-a]pyridin-3-yl)urea] | 100 to 1000 |
| COCCN1C[C@@H](NC(=O)Nc2c(-c3ccccc3)nc3ccc(F)cn23)[C@H](c2ccccc2)C1 (relative stereo) [Example 17, 1-(6-fluoro-2-phenylimidazo[1,2-a]pyridin-3-yl)-3-((trans)-1-(2-methoxyethyl)-4-phenylpyrrolidin-3-yl)urea] | < 100 |
| COCCN1C[C@@H](NC(=O)Nc2c(-c3ccccc3)nc3c(C)cccn23)[C@H](c2ccccc2)C1 (relative stereo) [Example 11, 1-((trans)-1-(2-methoxyethyl)-4-phenylpyrrolidin-3-yl)-3-(8-methyl-2-phenylimidazo[1,2-a]pyridin-3-yl)urea] | < 100 |
| COCCN1C[C@@H](NC(=O)Nc2ccc(C)c3cn[nH]c23)[C@H](c2ccccc2)C1 (relative stereo) [Example 2, 1-(trans-1-(2-methoxyethyl)-4-phenylpyrrolidin-3-yl)-3-(4-methyl-1H-indazol-7-yl)urea di-trifluoroacetate] | 100 to 1000 |
| COCCN1C[C@@H](NC(=O)Nc2c(-c3ccccc3)nc3c(C)nccn23)[C@H](c2ccccc2)C1 [Example 19, 1-((3S,4R)-1-(2-methoxyethyl)-4-phenylpyrrolidin-3-yl)-3-(8-methyl-2-phenylimidazo[1,2-a]pyrazin-3-yl)urea] | < 100 |
| COCCN1C[C@@H](NC(=O)Nc2c(-c3ccccc3)nc3c(F)cccn23)[C@H](c2ccccc2)C1 [Example 18, 1-(8-fluoro-2-phenylimidazo[1,2-a]pyridin-3-yl)-3-((3S,4R)-1-(2-methoxyethyl)-4-phenylpyrrolidin-3-yl)urea] | < 100 |
| COCCN1C[C@@H](NC(=O)Nc2c(-c3ccccc3)nc3c(=O)[nH]ccn23)[C@H](c2ccc(F)c(F)c2)C1 [Example 21, 1-((3S,4R)-4-(3,4-difluorophenyl)-1-(2-methoxyethyl)pyrrolidin-3-yl)-3-(8-oxo-2-phenyl-7,8-dihydroimidazo[1,2-a]pyrazin-3-yl)urea] | < 100 |
| COCCN1C[C@@H](NC(=O)Nc2c(-c3ccccc3)nc3c(C)nccn23)[C@H](c2ccc(F)cc2)C1 [Example 27, 1-((3S,4R)-4-(4-fluorophenyl)-1-(2-methoxyethyl)pyrrolidin-3-yl)-3-(8-methyl-2-phenylimidazo[1,2-a]pyrazin-3-yl)urea] | < 100 |
| COCCN1C[C@@H](NC(=O)Nc2c(-c3ccccc3)nc3c(C)cccn23)[C@H](c2ccccc2)C1 [Example 15, 1-((3S,4R)-1-(2-methoxyethyl)-4-phenylpyrrolidin-3-yl)-3-(8-methyl-2-phenylimidazo[1,2-a]pyridin-3-yl)urea] | < 100 |
| COCCN1C[C@@H](NC(=O)Nc2c(-c3ccccc3)nc3ccccn23)[C@H](c2ccccc2)C1 (relative stereo) [Example 6, 1-((trans)-1-(2-methoxyethyl)-4-phenylpyrrolidin-3-yl)-3-(2-phenylimidazo[1,2-a]pyridin-3-yl)urea] | < 100 |
| COCCN1C[C@@H](NC(=O)Nc2c(-c3ccccc3)nc3cc(C)ccn23)[C@H](c2ccccc2)C1 (relative stereo) [Example 12, 1-((trans)-1-(2-methoxyethyl)-4-phenylpyrrolidin-3-yl)-3-(7-methyl-2-phenylimidazo[1,2-a]pyridin-3-yl)urea] | < 100 |
| COCCN1C[C@@H](NC(=O)Nc2c(-c3ccccc3)nc3sccn23)[C@H](c2ccccc2)C1 (relative stereo) [Example 9, 1-((trans)-1-(2-methoxyethyl)-4-phenylpyrrolidin-3-yl)-3-(6-phenylimidazo[2,1-b]thiazol-5-yl)urea] | < 100 |
| COCCN1C[C@@H](NC(=O)Nc2c(-c3ccccc3)nc3c(Cl)cccn23)[C@H](c2ccccc2)C1 (relative stereo) [Example 14, 1-(8-chloro-2-phenylimidazo[1,2-a]pyridin-3-yl)-3-((trans)-1-(2-methoxyethyl)-4-phenylpyrrolidin-3-yl)urea] | < 100 |
| COCCN1C[C@@H](NC(=O)Nc2c(-c3ccccc3)[nH]c3ccccc23)[C@H](c2ccccc2)C1 (relative stereo) [Example 26, 1-((trans)-1-(2-methoxyethyl)-4-phenylpyrrolidin-3-yl)-3-(2-phenyl-1H-indol-3-yl)urea] | < 100 |
| COCCN1C[C@@H](NC(=O)Nc2c(-c3ccccc3)nc3ncccn23)[C@H](c2ccccc2)C1 (relative stereo) [Example 7, 1-((trans)-1-(2-methoxyethyl)-4-phenylpyrrolidin-3-yl)-3-(2-phenylimidazo[1,2-a]pyrimidin-3-yl)urea] | < 100 |
| COCCN1C[C@@H](NC(=O)Nc2c(-c3ccccc3)nc3c(OC)nccn23)[C@H](c2ccc(F)c(F)c2)C1 [Example 22, 1-((3S,4R)-4-(3,4-difluorophenyl)-1-(2-methoxyethyl)pyrrolidin-3-yl)-3-(8-methoxy-2-phenylimidazo[1,2-a]pyrazin-3-yl)urea] | < 100 |
| COCCN1C[C@@H](NC(=O)Nc2cccc3cn[nH]c23)[C@H](c2ccccc2)C1 (relative stereo) [Example 1, 1-(1H-indazol-7-yl)-3-(trans-1-(2-methoxyethyl)-4-phenylpyrrolidin-3-yl)urea di-trifluoroacetate] | 100 to 1000 |
| CCn1ccn2c(NC(=O)N[C@@H]3CN(CCOC)C[C@H]3c3ccc(F)c(F)c3)c(-c3ccccc3)nc2c1=O [Example 25, 1-((3S,4R)-4-(3,4-difluorophenyl)-1-(2-methoxyethyl)pyrrolidin-3-yl)-3-(7-ethyl-8-oxo-2-phenyl-7,8-dihydroimidazo[1,2-a]pyrazin-3-yl)urea] | < 100 |
| COCCN1C[C@@H](NC(=O)Nc2cccc3c(-c4ccccc4)n[nH]c23)[C@H](c2ccccc2)C1 (relative stereo) [Example 4, 1-(trans-1-(2-methoxyethyl)-4-phenylpyrrolidin-3-yl)-3-(3-phenyl-1H-indazol-7-yl)urea] | < 100 |
